Results: patent US12568967B2, “Compositions comprising pyridine carboxylate herbicides with synthetic auxin herbicides or auxin transport inhibitors” (priority 2018, dated 2026)
Several values for one entry are separate records, joined by “and”; a condition that tells them apart may be missing. Equal entries are not always repeated.

Assays:
[1] = tested on: Cirsium arvense (Canadian thistle, CIRAR); test: Greenhouse postemergence trial CIRAR; format: in vivo
[2] = tested on: Sinapis arvensis (wild mustard, SINAR); test: Greenhouse postemergence trial SINAR; format: in vivo
[3] = tested on: Amaranthus retroflexus (pigweed, AMARE); test: Greenhouse postemergence trial AMARE; format: in vivo;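 also: Greenhouse-grown plants sprayed at second to third true leaf stage, injury rated by eye after 20-22 d versus solvent-blank sprayed controls, 0 = no injury, 100 = complete kill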
Protocol: (§1) The plants were grown for 7-36 days (d) in a greenhouse with an approximate 14-hour (h) photo-period which was maintained at about 23° C. during the day and 22° C. during the night. Nutrients and water were added on a regular basis and supplemental lighting was provided with overhead metal halide 1000-Watt lamps as necessary. The plants were employed for testing when they reached the second or third true leaf stage.
(§2) The emulsifiable concentrates also included a safener, cloquintocet-mexyl, at 120 grams active ingredient per liter (g ai/L), unless otherwise noted below.
(§3) Control plants were sprayed in the same manner with the solvent blank. All pyridine carboxylate herbicide (component a) application rates are given as “g ae/ha” and all synthetic auxin herbicide or auxin transport inhibitor (component b) application rates are given as “g ai/ha.”
(§4) The treated plants and control plants were placed in a greenhouse as described above and watered by sub-irrigation to prevent wash-off of the test compounds. After 20-22 d, the condition of the test plants as compared with that of the control plants was determined visually and scored on a scale of 0 to 100 percent where 0 corresponds to no injury and 100 corresponds to complete kill.

[4] = tested on: Matricaria chamomilla (wild chamomile, MATCH); test: Greenhouse postemergence trial MATCH; format: in vivo;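 also: greenhouse plants sprayed at second to third true leaf stage, injury rated by eye 20-22 d later versus solvent-blank controls on 0–100 scale, 0 no injury, 100 complete kill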
[5] = tested on: Cyanus segetum (cornflower, CENCY); test: Greenhouse postemergence trial CENCY; format: in vivo; settings: CENCY; for % visual injury Obs: alone; for % visual injury, Obs: applied alone
[6] = tested on: Veronica hederifolia (ivyleaf speedwell, VERHE); test: Greenhouse postemergence trial VERHE; format: in vivo; settings: VERHE; for % visual injury, Obs: applied alone
[7] = tested on: Papaver rhoeas (corn poppy, PAPRH); test: Greenhouse postemergence trial PAPRH; format: in vivo; settings: PAPRH; for % visual injury Obs: alone; for % visual injury, Obs: applied alone
[8] = tested on: Veronica persica (bird's-eye speedwell, VERPE); test: Greenhouse postemergence trial VERPE; format: in vivo; settings: for % visual injury Obs / visual injury, Obs / % visual injury, Obs: VERPE; for % visual injury, Obs: applied alone
[9] = tested on: Matricaria discoidea (pineapple weed, MATMT); test: Greenhouse postemergence trial MATMT; format: in vivo; settings: MATMT; for % visual injury Obs: alone; for % visual injury, Obs: applied alone
Protocol: (§5) Seeds of the desired test plant species were planted in a 90:10% v/v (volume/volume) mixture of PRO-MIX® BX (Premier Tech Horticulture, Quakertown, PA, USA) and PROFILE® GREENS GRADE™ (Profile Products LLC, Buffalo Grove, IL, USA) planting mixture, which typically has a pH of 5.2 to 6.2 and an organic matter content of at least 50 percent, in plastic pots with a surface area of 103.2 square centimeters (cm^2). […] The plants were grown for 7-36 days (d) in a greenhouse with an approximate 14-hour (h) photo-period which was maintained at about 23° C. during the day and 22° C. during the night. Nutrients and water were added on a regular basis and supplemental lighting was provided with overhead metal halide 1000-Watt lamps as necessary. The plants were employed for testing when they reached the second or third true leaf stage.
(§6) Emulsifiable concentrates of each of each pyridine carboxylate herbicide (Compound A or Compound B) were prepared at 100 grams acid equivalent per liter (g ae/L). The emulsifiable concentrates also included a safener, cloquintocet-mexyl, at 120 grams active ingredient per liter (g ai/L), unless otherwise noted below. An aliquot of each emulsifiable concentrate was placed in a 25 mL glass vial and diluted with an aqueous mixture of 1.25% (v/v) ACTIROB® B esterified rapeseed oil (Bayer Crop Science, Research Triangle Park, NC, USA) or MSO® Concentrate with LECI-TECH® methylated soybean oil (Loveland Products, Loveland, CO, USA) to obtain concentrated stock solutions at the highest application rate for each herbicide, based upon a 12 milliliter (mL) application volume at a rate of 187 liters per hectare (L/ha). The concentrated stock solutions were further diluted with an aqueous mixture of 1.25% v/v ACTIROB® B or MSO® Concentrate with LECI-TECH® to obtain stock solutions at reduced application rates for each herbicide. Spray solutions of the herbicide combinations (Compound A or Compound B plus synthetic auxin herbicide or auxin transport inhibitor) were prepared by adding weighed amounts or aliquots of the synthetic auxin herbicide or auxin transport inhibitor to the stock solutions of Compound A or Compound B to form 12-mL spray solutions in two-way combinations.
(§7) The spray solutions were applied to the plant material with an overhead Mandel track sprayer equipped with 8002E nozzles calibrated to deliver 187 L/ha over an application area of 0.503 square meters (m^2) at a spray height of 18 inches (43 centimeters (cm)) above the average plant canopy. Control plants were sprayed in the same manner with the solvent blank. All pyridine carboxylate herbicide (component a) application rates are given as “g ae/ha” and all synthetic auxin herbicide or auxin transport inhibitor (component b) application rates are given as “g ai/ha.”
as §4

[10] = tested on: Brassica napus (spring rape, BRSNN); test: Greenhouse postemergence trial BRSNN; format: in vivo
Protocol: as §1, §2, §3, §4

[11] = tested on: Rumex obtusifolius (broad-leaf dock, RUMOB); test: Greenhouse postemergence trial RUMOB; format: in vivo; settings: Compound A 10 g/ha
Protocol: as §5, §6, §7, §4

[12] = tested on: Avena fatua (wild oat, AVEFA); test: Greenhouse postemergence trial AVEFA; format: in vivo; settings: Compound A 10 g/ha
Protocol: as §5
(§8) Emulsifiable concentrates of each of each pyridine carboxylate herbicide (Compound A or Compound B) were prepared at 100 grams acid equivalent per liter (g ae/L). The emulsifiable concentrates also included a safener, cloquintocet-mexyl, at 120 grams active ingredient per liter (g ai/L), unless otherwise noted below. An aliquot of each emulsifiable concentrate was placed in a 25 mL glass vial and diluted with an aqueous mixture of 1.25% (v/v) ACTIROB® B esterified rapeseed oil (Bayer Crop Science, Research Triangle Park, NC, USA) or MSO® Concentrate with LECI-TECH® methylated soybean oil (Loveland Products, Loveland, CO, USA) to obtain concentrated stock solutions at the highest application rate for each herbicide, based upon a 12 milliliter (mL) application volume at a rate of 187 liters per hectare (L/ha). The concentrated stock solutions were further diluted with an aqueous mixture of 1.25% v/v ACTIROB® B or MSO® Concentrate with LECI-TECH® to obtain stock solutions at reduced application rates for each herbicide. Spray solutions of the herbicide combinations (Compound A or Compound B plus synthetic auxin herbicide or auxin transport inhibitor) were prepared by adding weighed amounts or aliquots of the synthetic auxin herbicide or auxin transport inhibitor to the stock solutions of Compound A or Compound B to form 12-mL spray solutions in two-way combinations. […]
as §4

[13] = tested on: Leptochloa chinensis (Chinese sprangletop, LEFCH); test: Greenhouse postemergence trial LEFCH; format: in vivo; settings: Compound A 10 g/ha
Protocol: as §5, §8, §4

[14] = tested on: Sorghum vulgare (grain sorghum, SORVU); test: Greenhouse postemergence trial SORVU; format: in vivo; settings: Compound A 10 g/ha
Protocol: as §5, §8, §4

[15] = tested on: Lamium purpureum (purple deadnettle, LAMPU); test: Greenhouse postemergence trial LAMPU; settings: for % visual injury, Obs: applied alone
[16] = Lamium purpureum, post-emergence, read-out: % visual injury Obs

## N#CCOC(=O)c1nc(-c2ccc3cc[nH]c3c2F)c(F)c(N)c1Cl [Compound A, cyanomethyl 4-amino-3-chloro-5-fluoro-6-(7-fluoro-1H-indol-6-yl)pyridine-2-carboxylate]
[1]; CIRAR, Compound A 10 g/ha
  % visual injury, Obs: 20% and 30% and 28%
[1]; CIRAR, Compound A 10 g/ha alone
  visual injury, Obs: 50%
[1]; CIRAR, Compound A 15 g/ha alone
  visual injury, Obs: 60%
[1]; CIRAR, alone 10 g/ha
  % visual injury (Obs): 23% and 30%
  % visual injury Obs: 50%
[1]; CIRAR, alone, 15 g/ha
  % visual injury Obs: 60%
[1]; CIRAR, applied alone, 10 g/ha
  % visual injury, Obs: 50% and 55%
[1]; CIRAR, applied alone, 15 g/ha
  % visual injury, Obs: 60%
[1]; Cirsium arvense, post-emergence, CIRAR, Compound A 7.5 g/ha, read-out: % visual injury Obs
  pest or weed control at […]: 30%
[1]; Cirsium arvense, post-emergence, CIRAR, Compound A 10 g/ha, read-out: % visual injury Obs
  pest or weed control at 10 g/ha: 50%
[1]; Cirsium arvense, post-emergence, CIRAR, Compound A 15 g/ha, read-out: % visual injury Obs
  pest or weed control at 15 g/ha: 60%
[1]; Compound A 10 g/ha
  CIRAR Obs (% visual injury): 20% and 23%
[1]; Compound A 10 g/ha (Table 42)
  CIRAR % visual injury Obs: 20%
[1]; Compound A 10 g/ha (Table 43)
  CIRAR % visual injury Obs: 20%
[1]; Compound A 10 g/ha (Table 44)
  CIRAR % visual injury Obs: 20%
[1]; Compound A 10 g/ha, without safener
  CIRAR Obs (% visual injury): 28%
[2]; Compound A 10 g/ha
  SINAR Obs (% visual injury): 100% and 90%
[2]; Compound A 10 g/ha (Table 42)
  SINAR % visual injury Obs: 100%
[2]; Compound A 10 g/ha (Table 43)
  SINAR % visual injury Obs: 100%
[2]; Compound A 10 g/ha (Table 44)
  SINAR % visual injury Obs: 100%
[2]; Mutarda arvensis, post-emergence, SINAR, Compound A 7.5 g/ha, read-out: % visual injury Obs
  pest or weed control at […]: 90%
[2]; Mutarda arvensis, post-emergence, SINAR, Compound A 10 g/ha, read-out: % visual injury Obs
  pest or weed control at 10 g/ha: 90%
[2]; Mutarda arvensis, post-emergence, SINAR, Compound A 15 g/ha, read-out: % visual injury Obs
  pest or weed control at 15 g/ha: 100%
[2]; SINAR, Compound A 10 g/ha
  % visual injury Obs: 90%
  % visual injury, Obs: 100% and 88%
[2]; SINAR, Compound A 10 g/ha alone
  visual injury, Obs: 90%
[2]; SINAR, Compound A 15 g/ha alone
  visual injury, Obs: 100%
[2]; SINAR, alone, 10 g/ha
  % visual injury (Obs): 90% and 88%
  % visual injury Obs: 90%
[2]; SINAR, alone, 15 g/ha
  % visual injury Obs: 100%
[2]; SINAR, applied alone, 10 g/ha
  % visual injury, Obs: 90% and 88%
[2]; SINAR, applied alone, 15 g/ha
  % visual injury, Obs: 100%
[3]; AMARE, Compound A 10 g/ha
  % visual injury, Obs: 100% and 90%
[3]; AMARE, alone 10 g/ha
  % visual injury (Obs): 98% and 90%
[3]; AMARE, applied alone, 10 g/ha
  % visual injury, Obs: 85%
[3]; Compound A 10 g/ha
  AMARE Obs (% visual injury): 100% and 98%
[3]; Compound A 10 g/ha (Table 42)
  AMARE % visual injury Obs: 100%
[3]; Compound A 10 g/ha (Table 43)
  AMARE % visual injury Obs: 100%
[3]; Compound A 10 g/ha (Table 44)
  AMARE % visual injury Obs: 100%
[4]; Compound A 10 g/ha (Table 42)
  MATCH % visual injury Obs: 13%
[4]; Compound A 10 g/ha (Table 43)
  MATCH % visual injury Obs: 13%
[4]; Compound A 10 g/ha (Table 44)
  MATCH % visual injury Obs: 13%
[4]; MATCH, Compound A 10 g/ha
  % visual injury, Obs: 30%
[4]; MATCH, Compound A 10 g/ha alone
  visual injury, Obs: 20%
[4]; MATCH, Compound A 15 g/ha alone
  visual injury, Obs: 20%
[4]; MATCH, alone 10 g/ha
  % visual injury (Obs): 33% and 30%
  % visual injury Obs: 20%
[4]; MATCH, alone, 15 g/ha
  % visual injury Obs: 20%
[4]; MATCH, applied alone, 10 g/ha
  % visual injury, Obs: 20%
[4]; MATCH, applied alone, 15 g/ha
  % visual injury, Obs: 20%
[4]; Matricaria chamomilla, post-emergence, MATCH, Compound A 7.5 g/ha, read-out: % visual injury Obs
  pest or weed control at […]: 15%
[4]; Matricaria chamomilla, post-emergence, MATCH, Compound A 10 g/ha, read-out: % visual injury Obs
  pest or weed control at 10 g/ha: 20%
[4]; Matricaria chamomilla, post-emergence, MATCH, Compound A 15 g/ha, read-out: % visual injury Obs
  pest or weed control at 15 g/ha: 20%
[5]; Compound A 10 g/ha alone
  visual injury, Obs: 100%
[5]; Compound A 15 g/ha alone
  visual injury, Obs: 100%
[5]; 10 g/ha
  % visual injury Obs: 100%
  % visual injury, Obs: 100%
[5]; 15 g/ha
  % visual injury Obs: 100%
  % visual injury, Obs: 100%
[5]; Centaurea cyanus, post-emergence, Compound A 7.5 g/ha, read-out: % visual injury Obs
  pest or weed control at […]: 100%
[5]; Centaurea cyanus, post-emergence, Compound A 10 g/ha, read-out: % visual injury Obs
  pest or weed control at 10 g/ha: 100%
[5]; Centaurea cyanus, post-emergence, Compound A 15 g/ha, read-out: % visual injury Obs
  pest or weed control at 15 g/ha: 100%
[6]; Compound A 10 g/ha
  % visual injury Obs: 75%
[6]; Compound A 10 g/ha alone
  visual injury, Obs: 75%
[6]; Compound A 15 g/ha alone
  visual injury, Obs: 80%
[6]; alone, 10 g/ha
  % visual injury Obs: 75%
[6]; alone, 15 g/ha
  % visual injury Obs: 80%
[6]; 10 g/ha
  % visual injury, Obs: 75%
[6]; 15 g/ha
  % visual injury, Obs: 80%
[6]; Veronica hederifolia, post-emergence, Compound A 7.5 g/ha, read-out: % visual injury Obs
  pest or weed control at […]: 65%
[6]; Veronica hederifolia, post-emergence, Compound A 10 g/ha, read-out: % visual injury Obs
  pest or weed control at 10 g/ha: 75%
[6]; Veronica hederifolia, post-emergence, Compound A 15 g/ha, read-out: % visual injury Obs
  pest or weed control at 15 g/ha: 80%
[7]; Compound A 10 g/ha alone
  visual injury, Obs: 100%
[7]; Compound A 15 g/ha alone
  visual injury, Obs: 100%
[7]; 10 g/ha
  % visual injury Obs: 100%
  % visual injury, Obs: 100%
[7]; 15 g/ha
  % visual injury Obs: 100%
  % visual injury, Obs: 100%
[7]; Papaver rhoeas, post-emergence, Compound A 7.5 g/ha, read-out: % visual injury Obs
  pest or weed control at […]: 100%
[7]; Papaver rhoeas, post-emergence, Compound A 10 g/ha, read-out: % visual injury Obs
  pest or weed control at 10 g/ha: 100%
[7]; Papaver rhoeas, post-emergence, Compound A 15 g/ha, read-out: % visual injury Obs
  pest or weed control at 15 g/ha: 100%
[8]; Compound A 10 g/ha
  % visual injury Obs: 85%
[8]; Compound A 10 g/ha alone
  visual injury, Obs: 85%
[8]; Compound A 15 g/ha
  % visual injury Obs: 95%
[8]; Compound A 15 g/ha alone
  visual injury, Obs: 95%
[8]; alone, 10 g/ha
  % visual injury Obs: 85%
[8]; alone, 15 g/ha
  % visual injury Obs: 95%
[8]; 10 g/ha
  % visual injury, Obs: 85%
[8]; 15 g/ha
  % visual injury, Obs: 95%
[8]; Veronica persica, post-emergence, VERVE, Compound A 7.5 g/ha, read-out: % visual injury Obs
  pest or weed control at […]: 80%
[8]; Veronica persica, post-emergence, VERVE, Compound A 10 g/ha, read-out: % visual injury Obs
  pest or weed control at 10 g/ha: 85%
[8]; Veronica persica, post-emergence, VERVE, Compound A 15 g/ha, read-out: % visual injury Obs
  pest or weed control at 15 g/ha: 95%
[9]; Compound A 10 g/ha alone
  visual injury, Obs: 5%
[9]; Compound A 15 g/ha alone
  visual injury, Obs: 15%
[9]; 10 g/ha
  % visual injury Obs: 5%
  % visual injury, Obs: 5%
[9]; 15 g/ha
  % visual injury Obs: 15%
  % visual injury, Obs: 15%
[9]; Matricaria discoidea, post-emergence, Compound A 7.5 g/ha, read-out: % visual injury Obs
  pest or weed control at […]: 5%
[9]; Matricaria discoidea, post-emergence, Compound A 10 g/ha, read-out: % visual injury Obs
  pest or weed control at 10 g/ha: 5%
[9]; Matricaria discoidea, post-emergence, Compound A 15 g/ha, read-out: % visual injury Obs
  pest or weed control at 15 g/ha: 15%
[10]; BRSNN, Compound A 10 g/ha
  % visual injury, Obs: 55%
[10]; BRSNN, alone 10 g/ha
  % visual injury (Obs): 73% and 70%
[10]; Compound A 10 g/ha
  BRSNN Obs (% visual injury): 55% and 83% and 70%
[10]; Compound A 10 g/ha (Table 42)
  BRSNN % visual injury Obs: 55%
[10]; Compound A 10 g/ha (Table 43)
  BRSNN % visual injury Obs: 55%
[10]; Compound A 10 g/ha (Table 44)
  BRSNN % visual injury Obs: 55%
[11]
  RUMOB Obs (% visual injury): 10%
[11]; without safener
  RUMOB Obs (% visual injury): 35%
[11]; RUMOB
  % visual injury, Obs: 35%
[12]; AVEFA
  % visual injury, Obs: 0%
[12]; without safener
  AVEFA Obs (% visual injury): 0%
[13]; without safener
  LEFCH Obs (% visual injury): 0%
[13]; LEFCH
  % visual injury, Obs: 0%
[14]; without safener
  SORVU Obs (% visual injury): 0%
[14]; SORVU
  % visual injury, Obs: 0%
[15]; LAMPU, Compound A 10 g/ha alone
  visual injury, Obs: 70%
[15]; LAMPU, Compound A 15 g/ha
  % visual injury Obs: 75%
[15]; LAMPU, Compound A 15 g/ha alone
  visual injury, Obs: 75%
[15]; LAMPU, alone 10 g/ha
  % visual injury (Obs): 90%
  % visual injury Obs: 70%
[15]; LAMPU, alone, 15 g/ha
  % visual injury Obs: 75%
[15]; LAMPU, 10 g/ha
  % visual injury, Obs: 70%
[15]; LAMPU, 15 g/ha
  % visual injury, Obs: 75%
[15]; [16]
  pest or weed control at 10 g/ha: 70%
  pest or weed control at 15 g/ha: 75%
